Key:
Format in all cases: cell-based
[1] = system: wheat scab fungi (Fusarium graminearum and Fusarium asiaticum); test: organism not typed; settings: for inhibition at 0.125 µg/mL / inhibition at 0.25 µg/mL / inhibition at 0.5 µg/mL: read-out: Mycelial growth inhibition rate (MGIR); for inhibition at 0.5 µg/mL: 0.5 mg/L
[2] = system: banana Fusarium wilt pathogen (Fusarium oxysporum); test: microbe, parasite or virus in culture; settings: 1 mg/L; for inhibition at 1 µg/mL: Fusarium, read-out: Mycelial growth inhibition rate
[3] = system: melon Fusarium wilt pathogen (Fusarium oxysporum); test: microbe, parasite or virus in culture; settings: 1 mg/L; for inhibition at 1 µg/mL: Fusarium, read-out: Mycelial growth inhibition rate
[4] = system: rice bakanae disease pathogen (Fusarium moniliforme); test: microbe, parasite or virus in culture; settings: 1 mg/L; for inhibition at 1 µg/mL: Fusarium verticillioides, read-out: Mycelial growth inhibition rate

| Molecule | inhibition at 0.125 µg/mL ([1]; 0.125 mg/L) | inhibition at 0.25 µg/mL ([1]; 0.25 mg/L) | inhibition at 0.5 µg/mL [1] | further results |
| --- | --- | --- | --- | --- |
| CCOC(=O)/C(C#N)=C(\N)c1ccc(N)cc1 [Compound 1] | 65.5 ± 4.3% | 81.2 ± 6.3% | > 90% |  |
| CCOC(=O)/C(C#N)=C(\N)c1ccc(NC)cc1 [Compound 2] | > 90% | > 90% | > 90% | inhibition at 1 µg/mL [2]: > 90%; inhibition at 1 µg/mL [3]: > 90%; inhibition at 1 µg/mL [4]: > 90% |
| CCNc1ccc(/C(N)=C(\C#N)C(=O)OCC)cc1 [Compound 3] | > 90% | > 90% | > 90% | inhibition at 1 µg/mL [2]: > 90%; inhibition at 1 µg/mL [3]: > 90%; inhibition at 1 µg/mL [4]: > 90% |
| CCOC(=O)/C(C#N)=C(\N)c1ccc(N(C)CC)cc1 [Compound 8] | 88.3 ± 4.5% | > 90% | > 90% |  |
| CCOC(=O)/C(C#N)=C(\N)c1ccc(N(CC)CC)cc1 [Compound 11] | > 90% | > 90% | > 90% | inhibition at 1 µg/mL [2]: > 90%; inhibition at 1 µg/mL [3]: > 90%; inhibition at 1 µg/mL [4]: > 90% |
| CCOC(=O)/C(C#N)=C(\N)c1ccc(N2CCC2)cc1 [Compound 15] | 84.2 ± 4.5% | > 90% | > 90% |  |
| CCOC(=O)/C(C#N)=C(\N)c1ccc(N2CCCC2)cc1 [Compound 16] | 82.3 ± 2.5% | > 90% | > 90% |  |
| CCOC(=O)/C(C#N)=C(\N)c1ccc(N2CCCCC2)cc1 [Compound 17] | 81.4 ± 5.5% | > 90% | > 90% |  |
| CCN(CC)c1ccc(/C(N)=C(\C#N)C(=O)OC)cc1 [Compound 28] | 74.4 ± 3.8% | 85.3 ± 3.3% | > 90% |  |
| CCCOC(=O)/C(C#N)=C(\N)c1ccc(NC)cc1 [Compound 34] | 74.1 ± 2.3% | 84.9 ± 5.4% | > 90% |  |
| CCCOC(=O)/C(C#N)=C(\N)c1ccc(NCC)cc1 [Compound 35] | 76.6 ± 3.3% | 85.8 ± 1.8% | > 90% |  |
| CCCOC(=O)/C(C#N)=C(\N)c1ccc(N(C)C)cc1 [Compound 36] | 75.2 ± 3.3% | 85.4 ± 3.9% | > 90% |  |
| CCCOC(=O)/C(C#N)=C(\N)c1ccc(N(CC)CC)cc1 [Compound 37] | 73.9 ± 5.5% | 84.8 ± 7.1% | > 90% |  |
| phenamacril [reference compound] |  |  |  | Mycelial growth inhibition rate [2]: 25%; Mycelial growth inhibition rate [3]: 25%; Mycelial growth inhibition rate [4]: 25%; Mycelial growth inhibition rate (MGIR) ([1]; 0.125 mg/L): 21.1 ± 2.3%; Mycelial growth inhibition rate (MGIR) ([1]; 0.25 mg/L): 36.1 ± 5.0% |

Source: US20240298639A1 (priority 2021, published 2024)
